Reference: patent US8329755B2, “Methods for treating retroviral infections” (Roche Palo Alto LLC, priority 2004, dated 2012)

SMILES | melting point [°C]
COCC(=O)N(C)S(=O)(=O)c1ccc(NC(=O)Cc2ccc(Cl)c(Oc3cc(Cl)cc(C#N)c3)c2F)c(Cl)c1 [Compound I-171, 2-[4-Chloro-3-(3-chloro-5-cyano-phenoxy)-2-fluoro-phenyl]-N-{2-chloro-4-[(2-methoxy-acetyl)-methyl-sulfamoyl]-phenyl}-acetamide] | 183.2 to 185.5
COCCC(=O)N(C)S(=O)(=O)c1ccc(NC(=O)Cc2ccc(Cl)c(Oc3cc(Cl)cc(C#N)c3)c2F)c(Cl)c1 [Compound I-172, 2-[4-Chloro-3-(3-chloro-5-cyano-phenoxy)-2-fluoro-phenyl]-N-{2-chloro-4-[(3-methoxy-propionyl)-methyl-sulfamoyl]-phenyl}-acetamide] | 199.3 to 203
CCOC(=O)C(=O)Nc1ccc(NC(=O)Cc2ccc(C)c(Oc3cc(Cl)cc(C#N)c3)c2)c(C)c1 [Compound I-178, N-(4-{2-[3-(3-Chloro-5-cyano-phenoxy)-4-methyl-phenyl]-acetylamino}-3-methyl-phenyl)-oxalamic acid ethyl ester] | 182.5 to 183.9
CCc1ccc(CC(=O)Nc2ccc(S(N)(=O)=O)cc2Cl)c(F)c1Oc1cc(C#N)cc(C(F)F)c1 [Compound I-179, N-(2-Chloro-4-sulfamoyl-phenyl)-2-[3-(3-cyano-5-difluoromethyl-phenoxy)-4-ethyl-2-fluoro-phenyl]-acetamide] | 239.6 to 240.7
CCc1ccc(CC(=O)Nc2ccc(S(N)(=O)=O)cc2C)c(F)c1Oc1cc(C#N)cc(C(F)F)c1 [Compound I-180, 2-[3-(3-Cyano-5-difluoromethyl-phenoxy)-4-ethyl-2-fluoro-phenyl]-N-(2-methyl-4-sulfamoyl-phenyl)-acetamide] | 237.6 to 238.4
Cc1cc(CC(=O)Nc2ccc(S(N)(=O)=O)cc2)cc(Oc2cc(Cl)cc(C#N)c2)c1C [Compound I-182, 2-[3-(3-Chloro-5-cyano-phenoxy)-4,5-dimethyl-phenyl]-N-(4-sulfamoyl-phenyl)-acetamide] | 229.7 to 231.3
Cc1cc(S(N)(=O)=O)ccc1NC(=O)Cc1cc(C)c(C)c(Oc2cc(Cl)cc(C#N)c2)c1 [Compound I-183, 2-[3-(3-Chloro-5-cyano-phenoxy)-4,5-dimethyl-phenyl]-N-(2-methyl-4-sulfamoyl-phenyl)-acetamide] | 230.8 to 233.4
Cc1cc(CC(=O)Nc2ccc(S(N)(=O)=O)cc2Cl)cc(Oc2cc(Cl)cc(C#N)c2)c1C [Compound I-184, 2-[3-(3-Chloro-5-cyano-phenoxy)-4,5-dimethyl-phenyl]-N-(2-chloro-4-sulfamoyl-phenyl)-acetamide] | 224.3 to 225.7
Cc1cc(S(N)(=O)=O)ccc1NC(=O)Cc1ccc(Cl)c(Oc2cc(Br)cc(C#N)c2)c1F [Compound I-185, 2-[3-(3-Bromo-5-cyano-phenoxy)-4-chloro-2-fluoro-phenyl]-N-(2-methyl-4-sulfamoyl-phenyl)-acetamide] | 246 to 250.6
Cc1cc(S(N)(=O)=O)ccc1NC(=O)Cc1ccc(Cl)c(Oc2cc(C#N)cc(C#CCO)c2)c1F [Compound I-186, 2-{4-Chloro-3-[3-cyano-5-(3-hydroxy-prop-1-ynyl)-phenoxy]-2-fluoro-phenyl}-N-(2-methyl-4-sulfamoyl-phenyl)-acetamide] | 170.1 to 173.2
Cc1cc(S(N)(=O)=O)ccc1NC(=O)Cc1ccc(Cl)c(Oc2cc(C#N)cc(C#CCN(C)C)c2)c1F [Compound I-187, 2-{4-Chloro-3-[3-cyano-5-(3-dimethylamino-prop-1-ynyl)-phenoxy]-2-fluoro-phenyl}-N-(2-methyl-4-sulfamoyl-phenyl)-acetamide] | 156.2 to 158.2
N#Cc1cc(Cl)cc(Oc2c(Cl)ccc(CC(=O)Nc3ccc(S(=O)(=O)NC(=O)CCC(=O)O)cc3Cl)c2F)c1 [Compound I-188, 4-(3-Chloro-4-{2-[4-chloro-3-(3-chloro-5-cyano-phenoxy)-2-fluoro-phenyl]-acetylamino}-benzenesulfonylamino)-4-oxo-butyric acid] | 143.4 to 144
COc1ccc(CC(=O)Nc2ccc(S(N)(=O)=O)cc2Cl)c(F)c1Oc1cc(Cl)cc(C#N)c1 [Compound I-190, 2-[3-(3-Chloro-5-cyano-phenoxy)-2-fluoro-4-methoxy-phenyl]-N-(2-chloro-4-sulfamoyl-phenyl)-acetamide] | 212 to 212.8
COc1ccc(CC(=O)Nc2ccc(S(N)(=O)=O)cc2C)c(F)c1Oc1cc(Cl)cc(C#N)c1 [Compound I-191, 2-[3-(3-Chloro-5-cyano-phenoxy)-2-fluoro-4-methoxy-phenyl]-N-(2-methyl-4-sulfamoyl-phenyl)-acetamide] | 239.9 to 240.8
O=C(Cc1ccc(Cl)c(Oc2cccc(Cl)c2)c1)Nc1ccccc1 [Compound I-192, 2-[4-Chloro-3-(3-chloro-phenoxy)-phenyl]-N-phenyl-acetamide] | 126.8 to 127.7
CCc1ccc(CC(=O)Nc2ccccc2)cc1Oc1cc(C#N)cc(C#N)c1Cl [Compound I-208, 2-[3-(2-Chloro-3,5-dicyano-phenoxy)-4-ethyl-phenyl]-N-phenyl-acetamide] | 189.3 to 192.3
NS(=O)(=O)c1ccc(NC(=O)Cc2ccc(Cl)c(Cc3cc(Cl)ccc3Cl)c2)c(Cl)c1 [Compound I-209, 2-[4-Chloro-3-(2,5-dichloro-benzyl)-phenyl]-N-(2-chloro-4-sulfamoyl-phenyl)-acetamide] | 219.3 to 221.5

SMILES | melting point [°C]
COc1ccc(CC(=O)Nc2ccccc2)cc1Oc1cc(Cl)cc(C#N)c1 [Compound I-210, 2-[3-(3-Chloro-5-cyano-phenoxy)-4-methoxy-phenyl]-N-phenyl-acetamide] | 171.3 to 171.6
N#Cc1cc(C#N)cc(Oc2cc(CC(=O)Nc3ccccc3)ccc2Cl)c1 [Compound I-211, 2-[4-Chloro-3-(3,5-dicyano-phenoxy)-phenyl]-N-phenyl-acetamide] | 199 to 201.9
Cc1ccncc1NC(=O)Cc1ccc(C)c(Oc2cc(Cl)cc(C#N)c2)c1 [Compound I-224, 2-[3-(3-Chloro-5-cyano-phenoxy)-4-methyl-phenyl]-N-(4-methyl-pyridin-3-yl)-acetamide] | 158.6 to 159.1
Cc1ccc(CC(=O)Nc2ncccc2C)cc1Oc1cc(Cl)cc(C#N)c1 [Compound I-225, 2-[3-(3-Chloro-5-cyano-phenoxy)-4-methyl-phenyl]-N-(3-methyl-pyridin-2-yl)-acetamide] | 137.9 to 138.8
Cc1cc(NC(=O)Cc2ccc(C)c(Oc3cc(Cl)cc(C#N)c3)c2)n(C)n1 [Compound I-226, 2-[3-(3-Chloro-5-cyano-phenoxy)-4-methyl-phenyl]-N-(2,5-dimethyl-2H-pyrazol-3-yl)-acetamide] | 155.6 to 159
Cc1ccc(CC(=O)Nc2ccnn2C)cc1Oc1cc(Cl)cc(C#N)c1 [Compound I-227, 2-[3-(3-Chloro-5-cyano-phenoxy)-4-methyl-phenyl]-N-(2-methyl-2H-pyrazol-3-yl)-acetamide] | 129.5 to 132.8
CC(=O)Nc1cc(C)c(NC(=O)Cc2ccc(C)c(Oc3cc(Cl)cc(C#N)c3)c2)cn1 [Compound I-228, N-(6-Acetylamino-4-methyl-pyridin-3-yl)-2-[3-(3-chloro-5-cyano-phenoxy)-4-methyl-phenyl]-acetamide] | 222.5 to 224
COc1ccc(NC(=O)Cc2ccc(C)c(Oc3cc(Cl)cc(C#N)c3)c2)c(C)n1 [Compound I-229, 2-[3-(3-Chloro-5-cyano-phenoxy)-4-methyl-phenyl]-N-(6-methoxy-2-methyl-pyridin-3-yl)-acetamide] | 168.3 to 170.4
CSc1nc(NC(=O)Cc2ccc(C)c(Oc3cc(Cl)cc(C#N)c3)c2)n(C)n1 [Compound I-230, 2-[3-(3-Chloro-5-cyano-phenoxy)-4-methyl-phenyl]-N-(2-methyl-5-methylsulfanyl-2H-[1,2,4]triazol-3-yl)-acetamide] | 173 to 174
Cc1cc(CC(=O)Nc2ccccc2Cl)cc(C(=O)c2cc(Cl)cc(Cl)c2)c1 [Compound I-231, N-(2-Chloro-phenyl)-2-[3-(3,5-dichloro-benzoyl)-5-methyl-phenyl]-acetamide] | 142 to 146.2
Cc1cc(OCC(=O)O)ccc1NC(=O)Cc1ccc(C)c(Oc2cc(Cl)cc(C#N)c2)c1 [Compound I-234, (4-{2-[3-(3-Chloro-5-cyano-phenoxy)-4-methyl-phenyl]-acetylamino}-3-methyl-phenoxy)-acetic acid] | 174.8 to 176.4
COC(=O)Cc1ccc(NC(=O)Cc2ccc(C)c(Oc3cc(Cl)cc(C#N)c3)c2)c(Cl)c1 [Compound I-235, (3-Chloro-4-{2-[3-(3-chloro-5-cyano-phenoxy)-4-methyl-phenyl]-acetylamino}-phenyl)-acetic acid methyl ester] | 116.9 to 118
Cc1ccc(CC(=O)Nc2ccc(CC(=O)O)cc2Cl)cc1Oc1cc(Cl)cc(C#N)c1 [Compound I-236, (3-Chloro-4-{2-[3-(3-chloro-5-cyano-phenoxy)-4-methyl-phenyl]-acetylamino}-phenyl)-acetic acid] | 159.6 to 160
Cc1cc(NS(C)(=O)=O)ccc1NC(=O)Cc1ccc(C)c(Oc2cc(Cl)cc(C#N)c2)c1 [Compound I-237, 2-[3-(3-Chloro-5-cyano-phenoxy)-4-methyl-phenyl]-N-(4-methanesulfonylamino-2-methyl-phenyl)-acetamide] | 180 to 181.4
Cc1cc(N(C)S(C)(=O)=O)ccc1NC(=O)Cc1ccc(C)c(Oc2cc(Cl)cc(C#N)c2)c1 [Compound I-238, 2-[3-(3-Chloro-5-cyano-phenoxy)-4-methyl-phenyl]-N-[4-(methanesulfonyl-methyl-amino)-2-methyl-phenyl]-acetamide] | 184 to 184.8
O=C(Cc1cc2c(c(C(=O)c3ccc(Cl)cc3)c1)OCC2)Nc1ccccc1Cl [Compound I-240, 2-[7-(4-Chloro-benzoyl)-2,3-dihydro-benzofuran-5-yl]-N-(2-chloro-phenyl)-acetamide] | 141.1 to 144.9
NS(=O)(=O)c1ccc(NC(=O)Cc2cc3c(c(C(=O)c4ccc(Cl)cc4)c2)OCC3)cc1 [Compound I-241, 2-[7-(4-Chloro-benzoyl)-2,3-dihydro-benzofuran-5-yl]-N-(4-sulfamoyl-phenyl)-acetamide] | 259 to 261
